Like-named read-outs stand apart in the source and are kept apart here.
Legend:
MYB mRNA = assay: RT-qPCR splicing assay, MYB canonical junction (CJ) and alternative junction (AJ) mRNA; format: cell-based, human; details: Homo sapiens; for AC50: increase in MYB alternative junction (AJ) mRNA, read-out: MYB AJ AC50
Procedure, shortened: (§1)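 Read-out is one-step RT-qPCR on cell lysates detecting the exon-exon junction of each isoform, normalized to a housekeeping gene (PPIA in A673, GAPDH or GUSB in K562).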

Target C = assay: RT-qPCR splicing assay panel, Target C canonical junction (CJ) mRNA; format: cell-based, human; details: Homo sapiens
Procedure, shortened: (§2)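 A673 cells (DMEM/10% FBS) or K562 cells (IMDM/10% FBS) were treated 24 h at 37° C. with 11-point 3-fold dilutions (top 10 uM, ≤0.25% DMSO). Canonical-junction mRNA was quantified in lysates by RT-qPCR, normalized to GAPDH, GUSB or PPIA.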

[1] = tested on: K562 (human chronic myelogenous leukemia) cells; assay: Cell Titer Glo 2.0 cell viability assay; format: cell-based; details: Homo sapiens, K562, 72 h, K562 cells, 72 hours, Cell Titer Glo 2.0; read-out: K562 GI50
HTT mRNA = assay: RT-qPCR splicing assay, HTT canonical junction (CJ) and alternative junction (AJ) mRNA; format: cell-based, human; details: Homo sapiens; for AC50: increase in HTT alternative junction (AJ) mRNA, read-out: HTT AJ AC50
Procedure, shortened: as §1

SMN2 mRNA = assay: RT-qPCR splicing assay, SMN2 canonical junction (CJ) mRNA; format: cell-based, human; details: Homo sapiens
Procedure, shortened: as §2

[2] = Table 5 panel, canonical junction qPCR, compound concentration having 50% response in CJ decrease, read-out: MYB IC50 (decrease in CJ mRNA levels)
[3] = decrease in MYB canonical junction (CJ) mRNA, RT-qPCR, read-out: MYB CJ IC50
[4] = Table 5 panel, canonical junction qPCR, compound concentration having 50% response in CJ decrease, read-out: Target C IC50 (decrease in CJ mRNA levels)
[5] = decrease in HTT canonical junction (CJ) mRNA, RT-qPCR, read-out: HTT CJ IC50
[6] = Table 5 panel, canonical junction qPCR, compound concentration having 50% response in CJ decrease, read-out: HTT IC50 (decrease in CJ mRNA levels)
[7] = Table 5 panel, canonical junction qPCR, compound concentration having 50% response in CJ decrease, read-out: SMN2 IC50 (decrease in CJ mRNA levels)
[8] = canonical junction qPCR panel, Table 5, read-out: MYB (decrease in CJ mRNA levels, IC50)
[9] = canonical junction qPCR panel, Table 5, read-out: Target C (decrease in CJ mRNA levels, IC50)
[10] = canonical junction qPCR panel, Table 5, read-out: HTT (decrease in CJ mRNA levels, IC50)
[11] = canonical junction qPCR panel, Table 5, read-out: SMN2 (decrease in CJ mRNA levels, IC50)

SMILES | IC50 (MYB mRNA; [2]) | IC50 (MYB mRNA; [3]) | IC50 (Target C; [4]) | GI50 [1] | IC50 (HTT mRNA; [5]) | IC50 (HTT mRNA; [6]) | IC50 (SMN2 mRNA; [7]) | IC50 (MYB mRNA; [8]) | IC50 (Target C; [9]) | IC50 (HTT mRNA; [10]) | IC50 (SMN2 mRNA; [11]) | AC50 (MYB mRNA; RT-qPCR) | AC50 (HTT mRNA; RT-qPCR)
Cc1cn2nc(-n3cnc4cc(N5CCNCC5)ccc4c3=O)cc(C)c2n1 [Compound 241] | 1000 to 10000 nM | 1000 to 10000 nM | 1000 to 10000 nM | 1000 to 10000 nM | 1000 to 10000 nM | 1000 to 10000 nM | 1000 to 10000 nM | – | – | – | – | 1000 to 10000 nM | 1000 to 10000 nM
Cc1c(O)c(-c2ncc3c(=O)n([C@H]4CC[C@@H](N(C)C)CC4)ccc3n2)cc2cn(C)nc12 [Compound 1460, 6-((1s,4s)-4-(dimethylamino)cyclohexyl)-2-(6-hydroxy-2,7-dimethyl-2H-indazol-5-yl)pyrido[4,3-d]pyrimidin-5(6H)-one] | – | 100 to 1000 nM | – | 100 to 1000 nM | 1000 to 10000 nM | – | – | 100 to 1000 nM | 1000 to 10000 nM | 100 to 1000 nM | < 100 nM | 100 to 1000 nM | 100 to 1000 nM
Cc1c(O)c(-c2ccc3c(=O)n([C@@H]4C[C@@H](C)N[C@@H](C)C4)ccc3n2)cc2cn(C)nc12 [Compound 1463, 6-[(2S,6R)-2,6-dimethyl-4-piperidyl]-2-(6-hydroxy-2,7-dimethyl-indazol-5-yl)-1,6-naphthyridin-5-one] | – | 100 to 1000 nM | – | 100 to 1000 nM | 1000 to 10000 nM | – | – | 100 to 1000 nM | 1000 to 10000 nM | 100 to 1000 nM | < 100 nM | 100 to 1000 nM | 100 to 1000 nM
Cc1c(O)c(-c2ccc3c(=O)n([C@H]4C[C@@H](C)N[C@@H](C)C4)ccc3n2)cc2cn(C)nc12 [Compound 1464, 6-[(2S,6R)-2,6-dimethyl-4-piperidyl]-2-(6-hydroxy-2,7-dimethyl-indazol-5-yl)-1,6-naphthyridin-5-one] | – | 100 to 1000 nM | – | < 100 nM | 100 to 1000 nM | – | – | < 100 nM | 1000 to 10000 nM | 100 to 1000 nM | < 100 nM | < 100 nM | 100 to 1000 nM
Cn1cc2cc(-c3ncc4c(=O)n([C@H]5CCNC5)ccc4n3)c(O)c(F)c2n1 [Compound 1465] | – | 100 to 1000 nM | – | 100 to 1000 nM | 100 to 1000 nM | – | – | 100 to 1000 nM | 100 to 1000 nM | 100 to 1000 nM | < 100 nM | 100 to 1000 nM | 100 to 1000 nM
Cn1cc2cc(-c3ncc4c(=O)n([C@@H]5CCNC5)ccc4n3)c(O)c(F)c2n1 [Compound 1466] | – | 100 to 1000 nM | – | 100 to 1000 nM | 100 to 1000 nM | – | – | 100 to 1000 nM | 100 to 1000 nM | 100 to 1000 nM | < 100 nM | 100 to 1000 nM | 100 to 1000 nM
Cc1c(O)c(-c2ccc3c(=O)n(C4CCNC4)cc(C)c3n2)cc2cn(C)nc12 (stereo not drawn) [Compound 1467] | – | 100 to 1000 nM | – | 100 to 1000 nM | > 10000 nM | – | – | 100 to 1000 nM | > 10000 nM | 1000 to 10000 nM | < 100 nM | 100 to 1000 nM | 1000 to 10000 nM

Continued, in another order:

IC50 (MYB mRNA; [2]) | IC50 (MYB mRNA; [3]) | IC50 (Target C; [4]) | GI50 [1] | IC50 (HTT mRNA; [5]) | IC50 (HTT mRNA; [6]) | IC50 (SMN2 mRNA; [7]) | IC50 (MYB mRNA; [8]) | IC50 (Target C; [9]) | IC50 (HTT mRNA; [10]) | IC50 (SMN2 mRNA; [11]) | SMILES | AC50 (MYB mRNA; RT-qPCR) | AC50 (HTT mRNA; RT-qPCR)
< 100 nM | < 100 nM | 100 to 1000 nM | 100 to 1000 nM | < 100 nM | < 100 nM | < 100 nM | – | – | – | – | Cc1cn2nc(-c3cc(F)c4c(=O)n(C5CCN(C)CC5)cnc4c3)cc(C)c2n1 [Compound 242] | < 100 nM | < 100 nM
– | 100 to 1000 nM | – | 100 to 1000 nM | 100 to 1000 nM | – | – | < 100 nM | 100 to 1000 nM | 100 to 1000 nM | < 100 nM | Cc1cn2cc(-c3ncc4c(=O)n([C@H]5CCNC6(CC6)C5)ccc4n3)cc(F)c2n1 [Compound 1458, 6-[(7S)-4-azaspiro[2.5]octan-7-yl]-2-(8-fluoro-2-methyl-imidazo[1,2-a]pyridin-6-yl)pyrido[4,3-d]pyrimidin-5-one] | < 100 nM | 100 to 1000 nM
– | 100 to 1000 nM | – | < 100 nM | 100 to 1000 nM | – | – | < 100 nM | 100 to 1000 nM | 100 to 1000 nM | < 100 nM | Cc1c(O)c(-c2ncc3c(=O)n([C@H]4CC[C@H](N(C)C)CC4)ccc3n2)cc2cn(C)nc12 [Compound 1459, 6-((1r,4r)-4-(dimethylamino)cyclohexyl)-2-(6-hydroxy-2,7-dimethyl-2H-indazol-5-yl)pyrido[4,3-d]pyrimidin-5(6H)-one] | < 100 nM | 100 to 1000 nM
– | < 100 nM | – | < 100 nM | 100 to 1000 nM | – | – | < 100 nM | 100 to 1000 nM | 100 to 1000 nM | < 100 nM | Cc1c(O)c(-c2ncc3c(=O)n([C@H]4CCN[C@H](C)C4)ccc3n2)cc2cn(C)nc12 [Compound 1461, 2-(6-hydroxy-2,7-dimethyl-indazol-5-yl)-6-[(2R,4S)-2-methyl-4-piperidyl]pyrido[4,3-d]pyrimidin-5-one] | < 100 nM | 100 to 1000 nM
– | < 100 nM | – | < 100 nM | 100 to 1000 nM | – | – | < 100 nM | 100 to 1000 nM | 100 to 1000 nM | < 100 nM | Cc1c(O)c(-c2ncc3c(=O)n([C@@H]4CCN[C@@H](C)C4)ccc3n2)cc2cn(C)nc12 [Compound 1462, 2-(6-hydroxy-2,7-dimethyl-indazol-5-yl)-6-[(2S,4R)-2-methyl-4-piperidyl]pyrido[4,3-d]pyrimidin-5-one] | < 100 nM | 100 to 1000 nM
– | < 100 nM | – | < 100 nM | 100 to 1000 nM | – | – | < 100 nM | 100 to 1000 nM | 100 to 1000 nM | < 100 nM | Cn1cc2cc(-c3ncc4c(=O)n(C56CCC(N)(CC5)C6)ccc4n3)c(O)c(F)c2n1 [Compound 1468] | < 100 nM | 100 to 1000 nM
